Data reported in patent EP4603105A1, “PHARMACEUTICAL COMPOSITION CONTAINING CYCLIC COMPOUND HAVING SELECTIVE KRAS INHIBITORY EFFECT AGAINST HRAS AND NRAS” (CHUGAI SEIYAKU KABUSHIKI KAISHA, priority 2022, dated 2024).
Where a SMILES comes first, the peptide text is derived from it. Bridges are numbered along the chain shown (N, C = ends). [ ]: non-standard residue; d: D form. The star is where a group is joined. hPhe(3-Cl-4-CF3) = N[C@@H](CCc1ccc(C(F)(F)F)c(Cl)c1)C(=O)O; NEtPhe(4-Me) = CCN[C@@H](Cc1ccc(C)cc1)C(=O)O; NMeGly(cPent) = CN[C@H](C(=O)O)C1CCCC1; Hyp = O=C(O)[C@@H]1C[C@@H](O)CN1; NMeD = CN[C@@H](CC(=O)O)C(=O)O; NMeL = CN[C@@H](CC(C)C)C(=O)O; Morpholide = C1CN(*)CCO1; Ac5c = NC1(C(=O)O)CCCC1; X4 = C1CCC(*)OC1; Sar = CNCC(=O)O

Legend:
HRAS wild-type protein = HRAS wild-type protein (Homo sapiens, UniProt P01112); experiment: Binding to HRAS by surface plasmon resonance (SPR), KD and KD ratio to KRAS
HRAS wild-type protein, sequence (P01112 whole entry): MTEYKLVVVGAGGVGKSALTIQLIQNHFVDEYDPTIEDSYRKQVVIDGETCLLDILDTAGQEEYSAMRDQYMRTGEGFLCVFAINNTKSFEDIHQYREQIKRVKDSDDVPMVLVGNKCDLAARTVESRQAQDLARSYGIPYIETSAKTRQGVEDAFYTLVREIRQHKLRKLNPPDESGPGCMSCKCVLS
In short: (§1)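 GDP-bound biotin-Avi RAS captured at ~100–300 RU, 30°C, pH 7.4 HBS containing 10 µM GDP, 10 mM MgCl2, 1 mM DTT, 0.01% Tween 20 and 4% DMSO. KD by 1:1 fitting.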

[1] = molecular target: GDP-bound NRAS wild-type protein (Homo sapiens, UniProt P01111); experiment: Binding to NRAS by surface plasmon resonance (SPR), KD and KD ratio to KRAS
GDP-bound NRAS wild-type protein, sequence (P01111 whole entry): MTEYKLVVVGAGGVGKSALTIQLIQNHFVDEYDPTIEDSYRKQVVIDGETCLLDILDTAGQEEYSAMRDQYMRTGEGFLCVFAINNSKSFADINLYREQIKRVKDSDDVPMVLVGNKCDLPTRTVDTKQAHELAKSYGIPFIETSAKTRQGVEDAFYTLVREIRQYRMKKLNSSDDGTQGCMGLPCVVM
In short: as §1

[2] = test system: human lung cancer strain NCI-H441; format: cell-based
In short: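 Readout: […] after the ATP-based reagent. Compound: serial dilutions in dimethyl sulfoxide.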

[3] = molecular target: GDP-bound KRAS wild-type protein (Homo sapiens, UniProt P01116); experiment: Binding to KRAS by surface plasmon resonance (SPR), dissociation constant KD; details: 1:1 binding model
GDP-bound KRAS wild-type protein, sequence (P01116 1-188 isoform P01116-2): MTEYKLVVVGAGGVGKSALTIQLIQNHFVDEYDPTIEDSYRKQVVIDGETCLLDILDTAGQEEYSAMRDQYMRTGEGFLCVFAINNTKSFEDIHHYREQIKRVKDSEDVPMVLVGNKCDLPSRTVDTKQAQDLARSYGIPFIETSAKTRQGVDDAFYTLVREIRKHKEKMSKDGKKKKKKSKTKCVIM
In short: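 SPR, 30°C: Avi-biotin RAS·GDP captured via Biotin CAPture (~100–300 RU); running buffer HBS pH 7.4, 1 mM DTT, 10 mM MgCl2, 0.01% Tween 20, 10 µM GDP, 4% DMSO. Single-cycle kinetics, 100 µL/min, 75 s injections; 1:1 model → KD.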

[4] = ratio of KD for HRAS wild-type protein to KD for KRAS
[5] = ratio of KD for GDP-bound NRAS wild-type protein to KD for KRAS

Row | Structure (SMILES) | IC50 [2] [nM] | Kd [3] [nM] | Kd ([3]; Single Cycle Kinetics) [nM] | HRAS /KRAS (HRAS wild-type protein; [4]) | NRAS /KRAS [1, 5] | HRAS /KRAS (HRAS wild-type protein; ratio of the KD value with respect to HRAS wild-type protein to the KD value with respect to KRAS) | NRAS /KRAS ([1]; ratio of the KD value with respect to GDP-bound NRAS wild-type protein to the KD value with respect to KRAS)
1 | CCO[C@@H]1C[C@H]2C(=O)NC3(CC(C)(C)C3)C(=O)N(C)[C@@H](C3CCCC3)C(=O)N(C)[C@H](C(=O)N(C)CC)CC(=O)N(C)[C@@H](CC(C)C)C(=O)N[C@@H]([C@@H](C)CC)C(=O)N(C)CC(=O)N(C)[C@H]3C/C=C\CCN(C3=O)[C@@H](Cc3ccc(C(F)F)cc3)C(=O)N(C)CC(=O)N[C@@H](CCc3cc(F)c4c(c3)OCC4)C(=O)N2C1 [PP3150] | 191 | 2.9 | – | A (a compound having 10 or more and less than 20 is denoted as A) | A (a compound having 10 or more and less than 20 is denoted as A) | – | –
2 | CC[C@H](C)[C@@H]1NC(=O)[C@H](CC(C)C)N(C)C(=O)C[C@@H](C(=O)N2CCOCC2)N(C)C(=O)[C@H](C2CCCC2)N(C)C(=O)C2(CCCC2)NC(=O)[C@@H]2C[C@@H](OC3CCCCO3)CN2C(=O)[C@H](CCc2ccc(C(F)(F)F)c(Cl)c2)NC(=O)CN(C)C(=O)[C@H](Cc2ccc(C)cc2)N(CC)C(=O)CN(C)C(=O)CN(C)C1=O (stereo partly drawn) [PP0068] ([NMeL]I[Sar][Sar][NEtPhe(4-Me)][Sar][hPhe(3-Cl-4-CF3)][Hyp](X4)[Ac5c][NMeGly(cPent)][NMeD]-Morpholide; lactam N-11) | 9.1 | 0.14 | – | C (A compound having a KD ratio of 0.1 or more and less than 3 is denoted as C) | C (A compound having a KD ratio of 0.1 or more and less than 3 is denoted as C) | – | –
3 | CCC[C@H]1C(=O)N[C@@H]([C@@H](C)CC)C(=O)N(C)CC(=O)N(C)[C@H]2C/C=C\CCN(C2=O)[C@@H](Cc2ccc(C)cc2)C(=O)N(C)CC(=O)N[C@@H](CCc2cc(Cl)c3c(ccn3C)c2)C(=O)N2C[C@H](OCC)C[C@H]2C(=O)NC2(CC(C)(C)C2)C(=O)N(C)[C@@H](C2CCCC2)C(=O)N(C)[C@H](C(=O)N(C)C)CC(=O)N1C [PP2951] | 37 | 1 | – | A (a compound having 10 or more and less than 20 is denoted as A) | A (a compound having 10 or more and less than 20 is denoted as A) | – | –
4 | CCC[C@H]1C(=O)N[C@@H](C2CCCCC2)C(=O)N(C)CC(=O)N(C)[C@H]2C/C=C\CCN(C2=O)[C@@H](Cc2ccc(C)cc2)C(=O)N(C)CC(=O)N[C@@H](CCc2ccc(C(F)(F)F)c(Cl)c2)C(=O)N2C[C@H](OCC)C[C@H]2C(=O)NC2(CC(C)(C)C2)C(=O)N(C)[C@@H](CC(C)C)C(=O)N(C)[C@H](C(=O)N(C)C)CC(=O)N1C [PP3021] | 76.7 | 1.1 | – | A (a compound having 10 or more and less than 20 is denoted as A) | AA (a compound having 20 or more is denoted as AA) | – | –

Continued by falling IC50 [2], values first:

Row | IC50 [2] [nM] | Kd [3] [nM] | Kd ([3]; Single Cycle Kinetics) [nM] | Structure (SMILES) | HRAS /KRAS (HRAS wild-type protein; [4]) | NRAS /KRAS [1, 5] | HRAS /KRAS (HRAS wild-type protein; ratio of the KD value with respect to HRAS wild-type protein to the KD value with respect to KRAS) | NRAS /KRAS ([1]; ratio of the KD value with respect to GDP-bound NRAS wild-type protein to the KD value with respect to KRAS)
5 | 245 | 3.5 | – | C#CC[C@H]1C(=O)N[C@@H]([C@@H](C)CC)C(=O)N(C)CC(=O)N(C)[C@H]2C/C=C\CCN(C2=O)[C@@H](Cc2ccc(C(F)(F)F)cc2)C(=O)N(C)CC(=O)N[C@@H](CCc2ccc(C(F)(F)F)c(OC)c2)C(=O)N2C[C@H](F)C[C@H]2C(=O)NC2(CC(C)(C)C2)C(=O)N(C)[C@@H](CCC=C)C(=O)N(C)[C@H](C(=O)N2CCCC2)CC(=O)N1C [PP3132] | A (a compound having 10 or more and less than 20 is denoted as A) | A (a compound having 10 or more and less than 20 is denoted as A) | – | –
6 | 25.4 | – | 0.79 | CCO[C@@H]1C[C@H]2C(=O)NC3(CC(C)(C)C3)C(=O)N(C)[C@@H](C(CC)CC)C(=O)N(C)[C@H](C(=O)N(C)C)CC(=O)N(C)[C@@H](C(C)C)C(=O)N[C@@H]([C@@H](C)CC)C(=O)N(C)CC(=O)N(C)[C@H]3C/C=C\CCN(C3=O)[C@@H](Cc3ccc(C)cc3)C(=O)N(C)CC(=O)N[C@@H](CCc3ccc(C(F)(F)F)c(Cl)c3)C(=O)N2C1 [PP2158] | – | – | A (a compound having 10 or more and less than 20 is denoted as A) | AA (a compound having 20 or more is denoted as AA)
